Test results published in patent US9492423B2, “Formulations of histone deacetylase inhibitor in combination with bendamustine and uses thereof” (PHARMACYCLICS LLC, priority 2011, dated 2016).

Legend:
[1] = Clinical PK of Compound 1 in solution form, single oral dose and 2-hour IV infusion doses; settings: human, in vivo, humans
Protocol: In clinical trials involving humans with cancer, Compound 1 in solution form was administered at 2 mg/kg as a single oral dose and as multiple 2-hour IV infusion doses.

[2] = Phase 1 trial of oral capsule Compound 1, HCl: plasma pharmacokinetics; format: in vivo; settings: human, 30 mg/m^2 dose of capsule formulation of Example 2, solid tumor cancer patients, mean±SE, read-out: AUC0-4h for plasma concentrations
Protocol: (§1) This is a Phase 1 dose-escalation study of the safety, pharmacokinetics, and pharmacodynamics of Compound 1, HCl administered orally in patients with advanced cancer.
(§2) In the Phase 1 dose escalation study, up to 7 cohorts will receive Compound 1, HCl orally at doses starting at 30 mg/m^2, approximately 4-6 hours apart, up to 90 mg/m^2, 2 or 3 times a day according to 3 different dosing schedules within 28 day cycle (5 days of dosing followed by 2 days of no dosing; 5 days of dosing followed by 9 days of no dosing; 7 days of dosing followed by 7 days of no dosing) until the maximum tolerated dose is reached.
The following pharmacokinetic information was determined for patients that received a […] dose of the capsule formulation of Example 2. Solid tumor cancer patients received a […] dose of the capsule formulation of Example 2. Blood samples that were collected for up to 24 hours post-dosing were analyzed for pharmacokinetic evaluations. Plasma was harvested by centrifugation and stored at approximately −70° C. until analysis. Concentrations of Compound 1 were determined in plasma using HPLC gradient system (Hewlett Packard model 1100) was configured with Sciex API 3000 and a reversed phase column (Phenomenex, Luna C18, 3.0 μm, 50×2 mm i.d.). The mobile phase gradient consisted of 0.2% formic acid in water (A) and 0.2% formic acid in methanol (B). […]

[3] = Phase 1 trial of oral capsule Compound 1, HCl: safety, tolerability, pharmacodynamics; format: in vivo
Description: as §1
This study seeks to determine the highest dose of Compound 1, HCl that can be taken without causing serious side effects in patients with advanced cancer. The study will look at safety of the study drug (Compound 1, HCl) and whether the treatment schedule is tolerated by patients.
as §2
Patients should satisfy the following criteria: At least 18 years of age; histologically confirmed, measurable solid tumor, non-Hodgkin's lymphoma, Hodgkin's disease, chronic lymphocytic leukemia, or multiple myeloma that has relapsed after standard therapy or for which no standard therapy exists; ability to swallow oral capsules without difficulty; estimated life expectancy>12 weeks; ECOG performance status≦2; Creatinine≦1.5×institutional upper limit of normal (ULN); Total bilirubin≦1.5×institutional ULN (unless elevated from documented Gilbert's syndrome); AST and ALT≦2.5×institutional ULN (≦5×institutional ULN in the presence of liver metastases); Platelet count≧100,000/μL; ANC≧1500/μL; Hgb≧9.0 g/dL; Patients with previously treated, stable, asymptomatic brain metastases who are not on corticosteroids are eligible; Willing and able to sign a written informed consent.

[4] = test system: Neuroblastoma cell lines and patient-derived primary neuroblastoma cultures; experiment: Neuroblastoma cell viability, calcein AM assay; format: cell-based; settings: 48 hours, viability by calcein AM
Protocol: Neuroblastoma cell lines and patient-derived primary neuroblastoma cultures were treated with bortezomib, Compound 1 alone or a combination of both agents for 48 hours. Cells were also treated with HDAC inhibitors vorinostat, sodium butyrate, and valproic acid and viability was assessed by calcein AM assays. mRNA from treated cells was evaluated at 6 and 24 hours using U133+ mRNA expression arrays and Ingenuity analysis. Dichlorofluorescein (DCF) was used to measure reactive oxygen species (ROS). Cell viability assays were repeated in the presence of N-acetylcysteine (NAC). Western blot evaluated caspase-3 and PARP cleavage. Nude mice were injected with 10^7 SMS-KCNR cells subcutaneously and treated with daily doses of 0.5 mg/kg bortezomib, 12.5 mg/kg Compound 1, or a combination of the two agents. Tumors were measured and imaged twice per week.

[5] = test system: RAD51; experiment: Western blot of DNA repair proteins in multiple myeloma cell lines; format: cell-based; settings: FIG. 6A
Description: RAD51 represents an essential component of homologous recombination (HR), one of the two major DNA double-strand break (DSB) repair pathways in cells; the second pathway, non-homologous end joining (NHEJ), represented here by two of its components Ku-70 and DNA-PKcs, is not affected by these treatments. […] As explained supra, the synergistic anti-multiple myeloma activity of the bendamustine-Compound 1 combination could be due to a reduction in RAD51 levels caused by the HDAC inhibitor (i.e., Compound 1).

[6] = test system: RAD51; experiment: Jurkat cells, pretreatment and bendamustine-induced RAD51 upregulation; format: cell-based, human; settings: Jurkat cells pre-treated one day with 0.2 uM Compound 1, then 20 uM bendamustine for 1 day, FIG. 9
Protocol: Cells were pre-treated one day is advance with 0.2 uM HDAC inhibitor (i.e., Compound 1), then 20 uM bendamustine was added for 1 day.

[7] = test system: H929 (Multiple Myeloma); experiment: Tumor growth inhibition study, H929 bearing female SCID mice; format: in vivo; settings: PCI-24781 12 mg/kg BID IP 5 d/wk; bendamustine 5.0 mg/kg qd IP 2 d/wk; FIG. 7
Protocol: Mice inoculated subcutaneously in the right hind flank with H929 MM cells at a density of 1×10^7 cells in a volume of 100 μL/mouse 4 groups of animals (n=8/group) received vehicle (BID, IP, 5 d/wk), PCI-24781 alone (12 mg/kg BID, IP, 5 d/wk), bendamustine alone 5.0 mg/kg (qd, IP, 2 d/wk Tu, Th) or the combination. Body weights and tumor measurements were collected a minimum of 2 times each week for all animals. Blood and tumor samples were collected at study termination for pharmacodynamic evaluations.

[8] = test system: Jurkat (leukemia) and HCT-116 (colon tumor); experiment: In vitro dose scheduling studies, apoptosis by FACS (annexinV-FITC/PI); format: cell-based, human
Protocol: Pharmacokinetic data (pk) data from human patients was used to model various dose regimens using human cell lines: Jurkat (leukemia) and HCT-116 (colon tumor). The human cell lines were treated with or without a HDAC inhibitor (e.g. Compound 1). Cells were cultured, treated according to different regimens and concentrations to model the corresponding dosing regimen (continuous low dose: 0.2 μM; intravenous (IV): 2 μM 3 hours+0.3 μM 4 hours; oral BID: 0.4 μM 4 hours×2, 4 hours apart; oral consecutive BID: 0.4 μM 8 hours; oral consecutive TID: 0.266 μM 12 hours), then washed out to mimic the human in vivo PK.
Cell viability was examined by an analysis of apoptosis using fluorescence activated cell sorting (FACS) after staining with annexinV-FITC and propidium iodide (PI). In brief, after treatment, 1×10^6 cells were washed with phosphate buffered saline (PBS) and then labeled with annexinV-FITC/PI in the binding buffer according to manufacturer's protocol. Fluorescent signals of FITC and PI were detected at 518 nm and 620 nm, respectively, on a Beckman Coulter FACS instrument (Fullerton, Calif.). The data were analyzed with Flow Jo software (Tree Star, Ashland, Oreg.).

SMILES | bioavailability ([1]; 2 mg/kg, administered as immediate release capsules or an oral solution) [%] | bioavailability ([1]; 2 mg/kg solution, from oral and IV AUC0-∞) [%] | AUC(0-t) [2] [nM·h] | average grade of thrombocytopenia, TID versus BID consecutive dosing ([3]; daily exposure range of 0.63 to 2.15 μM·h) | therapeutic effect ([3]; immediate release capsule, 2 or 3 consecutive doses 4 to 6 hours apart on days of dosing) | incidence of Grade 4 thrombocytopenia (platelet count <25,000 per mm^2) ([3]; solid tumor and lymphoma patients, cycles of 7 days oral dosing followed by 7 days without dosing) | IC50 [4] [µM] | NHEJ components Ku-70 and DNA-PKcs [5] | RAD51 expression [5] | bendamustine-induced RAD51 upregulation [6] | tumor growth inhibition [7] [%] | efficacy of modelled oral tid dosing versus bid dosing ([8]; 0.266 μM 12 hours versus 0.4 μM 8 hours) | efficacy of modelled oral bid dosing given consecutively (4 hours apart) versus with a break in between ([8]; 0.4 μM 8 hours versus 0.4 μM 4 hours×2) | efficacy (tumor cell death) of modelled dose schedule ([8]; continuous exposure for at least 8 hours)
CN(C)Cc1c(C(=O)NCCOc2ccc(C(=O)NO)cc2)oc2ccccc12 [Compound 1, N-hydroxy-4-{2-[3-(N,N-dimethylaminomethyl)benzofuran-2-ylcarbonylamino]ethoxy}-benzamide] | ~27 | ~27 | 272 ± 51 | higher average grade of thrombocytopenia | therapeutic effect of Compound 1 was achieved | limited incidence of Grade 4 thrombocytopenia | < 0.2 | not affected | downregulation of RAD51 | suppressed bendamustine-induced RAD51 upregulation | 73 | better | more efficacious | good efficacy
Cn1c(CCCC(=O)O)nc2cc(N(CCCl)CCCl)ccc21 [bendamustine] |  |  |  |  |  |  |  |  |  |  | 79 |  |  | 
CC(C)C[C@H](NC(=O)[C@H](Cc1ccccc1)NC(=O)c1cnccn1)B(O)O [bortezomib, reference compound] |  |  |  |  |  |  | < 0.05 |  |  |  |  |  |  | 
